{"source": "patent US8404930B2", "about": "“Methods for improving monocot transformation” (Pioneer Hi-Bred International, Inc., priority 2009, dated 2013)", "key": {"[1]": {"system": "Maize inbred PHR03 immature embryos", "test": "Transformation frequency of maize using various light intensities (Example 18)", "format": "cell-based", "conditions": "4 μM copper in DBC3 resting and selection media", "experimental": "(§1) Maize inbred PHR03 immature embryos (9-13 DAP when embryo size around 0.8-2.5 mm) were infected with 5×10^8 cfu/mL Agrobacterium LBA4404 containing superbinary vector PHPMRFP in PHI-I liquid medium. The embryos were then co-cultivated on PHI-T co-cultivation media plates at 21° C. in dark conditions for 3 days. This may range from 1-7 days.\n(§2) The embryos were subcultured every 2-3 weeks.\nA regeneration step was followed by culturing the putative transgenic callus on PHI-RF medium plates for producing shoots and a rooting step on medium plates PHI-RR.\n(§3) Transformation frequency was calculated by the number of embryos producing transgenic plants divided by the number of embryos infected by Agrobacterium."}, "[2]": {"system": "Sorghum line TX430 immature embryos", "conditions": "for Transformation frequency (%): dark", "experimental": "(§4) Sorghum line TX430 immature embryos (9-15 DAP when embryo size around 0.8-2.5 mm) were infected with 1×10^9cfu/mL Agrobacterium LBA4404 containing superbinary vector PHPMYFP in PHI-I liquid medium. The embryos were co-cultivated on PHI-T medium plates at 25° C. (ranged 21-25° C.) in dark for 3 days (ranged 1-7 days).\n(§5) The whole selection step was in dark at 28° C. After two to three months from the initiation of the experiment, transgenic callus events were cultured for plant regeneration on the same regeneration medium (PHI-RF and PHI-Z) at the regular regeneration conditions.\nTransformation frequency was calculated by the number of embryos producing transgenic plants divided by the number of embryos infected by Agrobacterium"}, "[3]": {"system": "Maize inbred PHR03 immature embryos", "conditions": "for Transformation frequency (%): dark", "experimental": "as §1, §2\n(§6) A regeneration step is followed by culturing the putative transgenic callus on PHI-RF medium plates for producing shoots and a rooting step on medium plates PHI-RR.\nTransformation frequency was calculated by the number of embryos producing transgenic callus capable of regenerating plants divided by the number of embryos infected by Agrobacterium."}, "[4]": {"system": "Maize inbred PHR03 immature embryos", "conditions": "for Transformation frequency (%): dark", "experimental": "as §1, §2, §6, §3", "remark": "listed apart in the source"}, "[5]": {"system": "Sorghum line TX430 immature embryos", "experimental": "as §4\nThe whole selection step was in dark or dim light at 28° C. After two to three months from the initiation of the experiment, transgenic callus events were cultured for plant regeneration on the same regeneration medium (PHI-RF and PHI-Z) at the regular regeneration conditions.\nas §3"}, "[6]": {"system": "Sorghum line TX430 immature embryos", "conditions": "for Transformation frequency (%): dark", "experimental": "as §4, §5\nTransformation frequency was calculated by the number of embryos producing transgenic callus capable of regeneration divided by the number of embryos infected by Agrobacterium", "remark": "listed apart in the source"}, "[7]": {"conditions": "0.1 μM copper (negative control) in DBC3 resting and selection media, Average of exp 1-4"}, "[8]": {"conditions": "0.1 μM copper (negative control) in DBC3 resting and selection media, single experiments exp 1-4"}, "[9]": {"conditions": "5 μM copper in DBC3 resting and selection media, Average of exp 1-4"}}, "note": "Where “and” joins values, the source holds several entries; their conditions need not be identical. Identical values can stand only once. Like-named read-outs stand apart in the source and are kept apart here."}
{"smiles": "O=S(=O)([O-])[O-].[Cu+2]", "note": "[copper, cupric sulfate]", "values": [{"measurement": "Transformation frequency (%)", "setting": "[1]; Dark, single experiments exp 1-4", "value": "10% and 17.5% and 12.5% and 7.5%"}, {"measurement": "Transformation frequency (%)", "setting": "[1]; Dim light, Average of exp 1-4", "value": 17.5, "unit": "%"}, {"measurement": "Transformation frequency (%)", "setting": "[1]; dark, Average of exp 1-4", "value": 11.9, "unit": "%"}, {"measurement": "Transformation frequency (%)", "setting": "[2]; [7]", "value": 2.0, "unit": "%"}, {"measurement": "Transformation frequency (%)", "setting": "[2]; [8]", "value": "3.33% and 2.50% and 0.00%"}, {"measurement": "increase of transformation frequency over 0.1 μM copper", "setting": "[2]; 5 μM copper and above, sorghum", "value": "4-6 times"}, {"measurement": "Transformation frequency (%)", "setting": "[2]; [9]", "value": 13.8, "unit": "%"}, {"measurement": "Transformation frequency (%)", "setting": "[2]; 5 μM copper in DBC3 resting and selection media, single experiments exp 1-4", "value": "16.67% and 15.00% and 8.33%"}, {"measurement": "Transformation frequency (%)", "setting": "[2]; 10 μM copper in DBC3 resting and selection media, Average", "value": 13.0, "unit": "%"}, {"measurement": "Transformation frequency (%)", "setting": "[2]; 10 μM copper in DBC3 resting and selection media, single experiments exp 1-4", "value": "20.00% and 10.00% and 12.50%"}, {"measurement": "Transformation frequency (%)", "setting": "[2]; 30 μM copper in DBC3 resting and selection media, Average of exp 1-4", "value": 8.2, "unit": "%"}, {"measurement": "Transformation frequency (%)", "setting": "[2]; 50 μM copper in DBC3 resting and selection media, Average of exp 1-4", "value": 9.6, "unit": "%"}, {"measurement": "Transformation frequency (%)", "setting": "[2]; 50 μM copper in DBC3 resting and selection media, single experiments exp 1-4", "value": "5.00% and 10.00% and 11.11%"}, {"measurement": "Transformation frequency (%)", "setting": "[3]; [7]", "value": 4.4, "unit": "%"}, {"measurement": "Transformation frequency (%)", "setting": "[3]; [8]", "value": "2.5% and 5.0% and 7.5%"}, {"measurement": "increase of transformation frequency over 0.1 μM copper", "setting": "[3]; 1 μM copper and above, maize", "value": "3-5 times"}, {"measurement": "Transformation frequency (%)", "setting": "[3]; 1 μM copper in DBC3 resting and selection media, Average of exp 1-4", "value": 16.9, "unit": "%"}, {"measurement": "Transformation frequency (%)", "setting": "[3]; 1 μM copper in DBC3 resting and selection media, single experiments exp 1-4", "value": "15% and 17.5% and 20%"}, {"measurement": "Transformation frequency (%)", "setting": "[3]; 4 μM copper in DBC3 resting and selection media, Average of exp 1-4", "value": 11.9, "unit": "%"}, {"measurement": "Transformation frequency (%)", "setting": "[3]; [9]", "value": 23.1, "unit": "%"}, {"measurement": "Transformation frequency (%)", "setting": "[4]; 0.1 μM copper (negative control) in DBC3 resting and selection media, Average of exp 1-5", "value": 2.9, "unit": "%"}, {"measurement": "Transformation frequency (%)", "setting": "[4]; 0.1 μM copper (negative control) in DBC3 resting and selection media, single experiments exp 1-5", "value": "5.0% and 0.0% and 10.0%"}, {"measurement": "increase of transformation frequency over 0.1 μM copper", "setting": "[4]; 5 μM copper and above, maize", "value": "4-7 times"}, {"measurement": "Transformation frequency (%)", "setting": "[4]; 5 μM copper in DBC3 resting and selection media, Average of exp 1-5", "value": 23.5, "unit": "%"}, {"measurement": "Transformation frequency (%)", "setting": "[4]; 10 μM copper in DBC3 resting and selection media, Average of exp 1-5", "value": 19.0, "unit": "%"}, {"measurement": "Transformation frequency (%)", "setting": "[4]; 30 μM copper in DBC3 resting and selection media, Average of exp 1-5", "value": 14.0, "unit": "%"}, {"measurement": "Transformation frequency (%)", "setting": "[4]; 50 μM copper in DBC3 resting and selection media, Average of exp 1-5", "value": 21.0, "unit": "%"}, {"measurement": "Transformation frequency (%)", "setting": "[5]; 4 μM copper in DBC3 resting and selection media, Dim light, Average of exp 1-2", "value": 31.3, "unit": "%"}, {"measurement": "Transformation frequency (%)", "setting": "[5]; 4 μM copper in DBC3 resting and selection media, dark, Average of exp 1-2", "value": 17.1, "unit": "%"}, {"measurement": "Transformation frequency (%)", "setting": "[5]; 5 μM copper in DBC3 resting and selection media, Dim light, Average of exp 1-2", "value": 20.0, "unit": "%"}, {"measurement": "Transformation frequency (%)", "setting": "[5]; 5 μM copper in DBC3 resting and selection media, dark, Average of exp 1-2", "value": 26.3, "unit": "%"}, {"measurement": "Transformation frequency (%)", "setting": "[5]; 5 μM copper in DBC3 resting and selection media, dark, single experiments exp 1-2", "value": "27.5% and 25.0%"}, {"measurement": "Transformation frequency (%)", "setting": "[6]; 0.1 μM copper in DBC3 resting and selection media, Average of exp 1-2", "value": 10.0, "unit": "%"}, {"measurement": "Transformation frequency (%)", "setting": "[6]; 0.1 μM copper in DBC3 resting and selection media, single experiments exp 1-2", "value": "15.0% and 5.0%"}, {"measurement": "increase of transformation frequency over 0.1 μM copper", "setting": "[6]; 1 μM copper and above, sorghum", "value": "two times"}, {"measurement": "Transformation frequency (%)", "setting": "[6]; 1 μM copper in DBC3 resting and selection media, Average of exp 1-2", "value": 23.8, "unit": "%"}, {"measurement": "Transformation frequency (%)", "setting": "[6]; 1 μM copper in DBC3 resting and selection media, single experiments exp 1-2", "value": "30.0% and 17.5%"}, {"measurement": "Transformation frequency (%)", "setting": "[6]; 4 μM copper in DBC3 resting and selection media, Average of exp 1-2", "value": 17.1, "unit": "%"}, {"measurement": "Transformation frequency (%)", "setting": "[6]; 5 μM copper in DBC3 resting and selection media, Average of exp 1-2", "value": 26.3, "unit": "%"}, {"measurement": "Transformation frequency (%)", "setting": "[6]; 5 μM copper in DBC3 resting and selection media, single experiments exp 1-2", "value": "27.5% and 25.0%"}]}
